Literature values in US7273620B1, “Triggered release of liposomal drugs following mixing of cationic and anionic liposomes” (University of British Columbia, priority 2002, dated 2007).

Details: from LUV; depends on acyl chain length of ceramide anchor

1-O-(2′-(ω-methoxypolyethylene-glycol)succinoyl)-2-N-myristoylsphyngosine [PEG-CerC14]
dissociation rate of PEG-Ceramide: 1.2 h
